Structures can show the parent of a compound that is named as a salt.
Assays:
[1] = test system: Mouse Ischemic Stroke Model; experiment: Infarct volume suppressive and motor function improving effects in mouse ischemic stroke model (Rose Bengal photothrombosis, TTC staining, Rota-rod); type: in vivo; conditions: dose of 10 mg/kg; for infarct volume suppression rate (%): two administrations, measured two days later, TTC staining; for walking time (%): walking time on Rota-Rod with Vehicle 100%, two days later
Experimental: Mouse was fixed under isoflurane anesthesia and the scalp was incised. Rose Bengal (7.5 mg/kg) was administered i.v., and green light (550 nm, Hamamatsu Photonics, K.K.) was immediately irradiated at 2 mm side and 1 mm above the bregma for 5 min. Thereafter, the scalp was bonded with an instant glue. To the test drug and control groups was given the first administration after the mice awoke, and they were subjected to the administration again the next day. Two days later, motor function was evaluated by Rota-rod (up to 60 sec, walking time on Rota-Rod was measured). Then the brain was removed, sliced in 1 mm, the site of infaction was decided by 1% TTC staining and the volume was measured by image analysis. The infarct volume suppression rate (%) and walking time (%) on Rota-Rod with Vehicle 100% at the dose of 10 mg/kg are shown in the following Table. In addition, walking time (sec) on Rota-Rod and infarct volume suppression rate (mm^3) when 3-deazaadenosine was used as a test drug are shown in FIG. 1 and FIG. 2.

homocysteine synthesis = experiment: Measurement of homocysteine synthesis inhibitory activity in vivo (methionine-loaded mouse, plasma homocysteine); conditions: dose of 10 mg/kg, oral, BALB/c mouse; methionine water 1 hr later; plasma 30 min after; read-out: activity (homocysteine synthesis inhibitory rate)
Experimental: A sample was orally administered to BALB/c mouse and, 1 hr later, methionine water (50 g/L) was orally administered at a proportion of 10 ml/kg. 30 min later, blood samples were collected with heparin from the abdominal vein and plasma was obtained. The plasma homocysteine concentration was measured by treating the plasma with tributylphosphine, removing protein with 10% trichloroacetic acid (TCA), fluorescent labeling the supernatant with 4-fluoro-7-sulfobenzofurazan ammonium salt (SBD-F) under alkali conditions, and quantifying by HPLC. The homocysteine synthesis inhibitory rate of the sample was determined with the difference in the homocysteine value between methionine water-loaded animal and methionine water-unloaded animal as 100%. The detailed conditions of HPLC were as follows.
column used: Wakopak^R HandyODS 150*4.6 mm (Wako Pure Chemical Industries, Ltd.) elution condition: 1.0 ml/min elution solvent: 0.1M phosphate buffer (pH 6.0) 2% methanol wavelength: ex 385 nm em 515 nm

[2] = biological target: T1, Human-recombinant-S-Adenosyl-L-Homocysteine Hydrolase (Homo sapiens, UniProt P23526); experiment: Measurement of enzyme inhibitory activity (hydrolysis of S-Adenosyl-L-Homocysteine, HPLC); type: biochemical; conditions: S-Adenosyl-L-Homocysteine 10 μM, pH 7.2, 37° C., 15 min
T1 construct: purchased Diazyme Laboratories
T1 sequence (P23526 whole entry): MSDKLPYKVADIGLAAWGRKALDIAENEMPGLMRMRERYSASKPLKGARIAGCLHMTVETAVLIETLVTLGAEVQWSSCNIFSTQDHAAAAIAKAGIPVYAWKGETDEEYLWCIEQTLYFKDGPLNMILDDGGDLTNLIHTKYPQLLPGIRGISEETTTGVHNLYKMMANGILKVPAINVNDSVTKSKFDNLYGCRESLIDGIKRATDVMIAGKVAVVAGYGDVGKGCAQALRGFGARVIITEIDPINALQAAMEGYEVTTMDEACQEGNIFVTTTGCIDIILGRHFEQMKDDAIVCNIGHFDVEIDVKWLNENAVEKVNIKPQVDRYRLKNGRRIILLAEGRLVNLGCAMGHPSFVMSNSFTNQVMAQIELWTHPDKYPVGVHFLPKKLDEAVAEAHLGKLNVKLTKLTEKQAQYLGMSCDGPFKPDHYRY
Experimental: The enzyme inhibitory activity of the compounds of the Examples was measured using the hydrolysis activity of S-Adenosyl-L-Homocysteine as an index. The measurement method was modification of the method of Henry H. Richards et al. (J. Biol. Chem. 253, 4476-4480, 1978). That is, S-Adenosyl-L-Homocysteine (10 μM) and Adenosine Deaminase (Roche) (4 units) were added to 50 mM phosphate buffer (pH 7.2, containing 1 mM EDTA) with the total amount being 200 μl, and to the solution were added a test substance and then Human-recombinant-S-Adenosyl-L-Homocysteine Hydrolase (50 ng, Diazyme Laboratories) to start the reaction, and the mixture was incubated at 37° C. for 15 min. The reaction was quenched by the addition of 1N aqueous perchloric solution (20 μl), and the mixture was centrifuged under the conditions of 10000 rpm, 5 min, 4° C. The supernatant was collected, and the amount of S-Adenosyl-L-Homocysteine after the reaction was quantified by HPLC. The column used was a reversed-phase column. The detailed conditions of HPLC were as follows.
column used: Wakopak^R HandyODS 150*4.6 mm (Wako Pure Chemical Industries, Ltd.) elution condition: 1.0 ml/min elution solvent: 0.1M acetate buffer (pH 4.0) containing 10 mM 1-heptanesulfonic acid containing 4% acetonitrile wavelength: 258 nm (UV) The inhibitory rate was determined with the amount of decrease in S-Adenosyl-L-Homocysteine before and after the reaction without using the test substance as 100%.
Inhibitory rate (%)={(amount of decrease of S-Adenosyl-L-Homocysteine in the presence of test substance)/(amount of decrease of S-Adenosyl-L-Homocysteine in the absence of test substance)}×100

IC50 [2] [nM] | Compound | infarct volume suppression rate (%) [1] [%] | walking time (%) [1] [%] | inhibition in vivo at 10 mg/kg (homocysteine synthesis) [%]
 | Nc1nccc2c1ncn2[C@@H]1O[C@H](CO)[C@@H](O)[C@H]1O [3-deazaadenosine, reference compound] | 14 | 170 | 
68 | Cc1ccc(C#N)cc1N(CC(=O)NCCNC(C)C)CC(=O)N(C)N1Cc2ccccc2C1 [Example 1, N^2-(5-cyano-2-methylphenyl)-N^2-{2-[1,3-dihydro-2H-isoindol-2-yl(methyl)amino]-2-oxoethyl}-N^1-[2-(isopropylamino)ethyl]glycinamide dihydrochloride] |  |  | ≥ 40
92 | CCNCCNC(=O)CN(CC(=O)N(C)N1Cc2ccccc2C1)c1cc(C#N)ccc1C [Example 2, N^2-(5-cyano-2-methylphenyl)-N^2-{2-[1,3-dihydro-2H-isoindol-2-yl(methyl)amino]-2-oxoethyl}-N^1-[2-(ethylamino)ethyl]glycinamide dihydrochloride] |  |  | ≥ 40
89 | Cc1nc(-c2ccc(C)c(N(CC(=O)NCCNC(C)C)CC(=O)N(C)N3Cc4ccc(F)cc4C3)c2)no1 [Example 21, N^2-{2-[(5-fluoro-1,3-dihydro-2H-isoindol-2-yl)(methyl)amino]-2-oxoethyl}-N^2-[2-methyl-5-(5-methyl-1,2,4-oxadiazol-3-yl)phenyl]-N^1-[2-(isopropylamino)ethyl]glycinamide] |  |  | ≥ 40
46 | CCNCCNC(=O)CN(CC(=O)N(C)N1Cc2ccc(OC)cc2C1)c1cc(-c2noc(C)n2)ccc1C [Example 24, N^2-{2-[(5-methoxy-1,3-dihydro-2H-isoindol-2-yl)(methyl)amino]-2-oxoethyl}-N^2-[2-methyl-5-(5-methyl-1,2,4-oxadiazol-3-yl)phenyl]-N^1-[2-(ethylamino)ethyl]glycinamide] |  |  | 20 to 40
103 | Cc1nc(-c2ccc(N(CC(=O)NCCNC(C)C)CC(=O)N(C)N3Cc4ccccc4C3)c(C)c2)no1 [Example 64, N^2-{2-[1,3-dihydro-2H-isoindol-2-yl(methyl)amino]-2-oxoethyl}-N^2-[2-methyl-4-(5-methyl-1,2,4-oxadiazol-3-yl)phenyl]-N^1-[2-(isopropylamino)ethyl]glycinamide] |  |  | ≥ 40
43 | Cc1ccc(-c2nn(C)c(=O)o2)cc1N(CC(=O)NCCNC(C)C)CC(=O)N(C)N1Cc2ccccc2C1 [Example 88, N^2-{2-[1,3-dihydro-2H-isoindol-2-yl(methyl)amino]-2-oxoethyl}-N^2-[2-methyl-5-(4-methyl-5-oxo-4,5-dihydro-1,3,4-oxadiazol-2-yl)phenyl]-N^1-[2-(isopropylamino)ethyl]glycinamide] |  |  | 20 to 40
53 | CCNCCNC(=O)CN(CC(=O)N(C)N1Cc2ccccc2C1)c1cc(-c2nn(C)c(=O)o2)ccc1C [Example 89, N^2-{2-[1,3-dihydro-2H-isoindol-2-yl(methyl)amino]-2-oxoethyl}-N^2-[2-methyl-5-(4-methyl-5-oxo-4,5-dihydro-1,3,4-oxadiazol-2-yl)phenyl]-N^1-[2-(ethylamino)ethyl]glycinamide] |  |  | 20 to 40
48 | CCNCCNC(=O)CN(CC(=O)N(C)N1Cc2ccccc2C1)c1cc(-c2nn(CC)c(=O)o2)ccc1C [Example 92, N^2-{2-[1,3-dihydro-2H-isoindol-2-yl(methyl)amino]-2-oxoethyl}-N^2-[5-(4-ethyl-5-oxo-4,5-dihydro-1,3,4-oxadiazol-2-yl)-2-methylphenyl]-N^1-[2-(ethylamino)ethyl]glycinamide] |  |  | ≥ 40
63 | CCN1C(=O)CCc2cc(N(CC(=O)NCCNC(C)C)CC(=O)N(C)N3Cc4ccccc4C3)c(C)cc21 [Example 176, N^2-{2-[1,3-dihydro-2H-isoindol-2-yl(methyl)amino]-2-oxoethyl}-N^2-(1-ethyl-7-methyl-2-oxo-1,2,3,4-tetrahydroquinolin-6-yl)-N^1-[2-(isopropylamino)ethyl]glycinamide] |  |  | ≥ 40
 | CCNCCNC(=O)CN(CC(=O)N(C)N1Cc2ccc(F)cc2C1)c1cc2c(C)noc2cc1C [Example 183, N^2-(3,6-dimethyl-1,2-benzisoxazol-5-yl)-N^2-{2-[(5-fluoro-1,3-dihydro-2H-isoindol-2-yl)(methyl)amino]-2-oxoethyl}-N^1-[2-(ethylamino)ethyl]glycinamide dihydrochloride] | 22 | 240 | 
37 | Cc1cc2c(C)noc2cc1N(CC(=O)NCCNC(C)C)CC(=O)N(C)N1Cc2ccccc2C1 [Example 184, N^2-{2-[1,3-dihydro-2H-isoindol-2-yl(methyl)amino]-2-oxoethyl}-N^2-(3,5-dimethyl-1,2-benzisoxazol-6-yl)-N^1-[2-(isopropylamino)ethyl]glycinamide] |  |  | ≥ 40
8 | CCNCCNC(=O)CN(CC(=O)N(C)N1Cc2ccccc2C1)c1cc2onc(C)c2cc1C [Example 185, N^2-{2-[1,3-dihydro-2H-isoindol-2-yl(methyl)amino]-2-oxoethyl}-N^2-(3,5-dimethyl-1,2-benzisoxazol-6-yl)-N^1-[2-(ethylamino)ethyl]glycinamide] |  |  | ≥ 40
35 | CCNCCNC(=O)CN(CC(=O)N(C)N1Cc2ccccc2C1)c1ccc(-c2nc(C)no2)cc1C [Example 229, N^2-{2-[1,3-dihydro-2H-isoindol-2-yl(methyl)amino]-2-oxoethyl}-N^2-[2-methyl-4-(3-methyl-1,2,4-oxadiazol-5-yl)phenyl]-N^1-[2-(ethylamino)ethyl]glycinamide] |  |  | ≥ 40
9 | CCNCCNC(=O)CN(CC(=O)N(C)N1Cc2ccccc2C1)c1cc2cnn(C)c2cc1C [Example 241, N^2-{2-[1,3-dihydro-2H-isoindol-2-yl(methyl)amino]-2-oxoethyl}-N^2-(1,6-dimethyl-1H-indazol-5-yl)-N^1-[2-(ethylamino)ethyl]glycinamide hydrochloride] |  |  | ≥ 40
 | CCNCCNC(=O)CN(CC(=O)N(C)N1Cc2ccc(F)cc2C1)c1cc2cnn(C)c2cc1C [Example 244, N^2-(1,6-dimethyl-1H-indazol-5-yl)-N^2-{2-[(5-fluoro-1,3-dihydro-2H-isoindol-2-yl)(methyl)amino]-2-oxoethyl}-N^1-[2-(ethylamino)ethyl]glycinamide hydrochloride] | 26 | 330 | ≥ 40
 | CCNCCNC(=O)CN(CC(=O)N(C)N1Cc2ccc(F)cc2C1)c1cc(-c2noc(CO)n2)ccc1C [Example 292, N^2-{2-[(5-fluoro-1,3-dihydro-2H-isoindol-2-yl)(methyl)amino]-2-oxoethyl}-N^2-{5-[5-(hydroxymethyl)-1,2,4-oxadiazol-3-yl]-2-methylphenyl}-N^1-[2-(ethylamino)ethyl]glycinamide hydrochloride] |  |  | 20 to 40
 | CCNCCNC(=O)CN(CC(=O)N(C)N1Cc2ccccc2C1)c1ccc(-c2nc(C(=O)N(C)C)cs2)cc1C [Example 304, N^2-{2-[1,3-dihydro-2H-isoindol-2-yl(methyl)amino]-2-oxoethyl}-N^2-[4-{4-[(dimethylamino)carbonyl]-1,3-thiazol-2-yl}-2-methylphenyl]-N^1-[2-(ethylamino)ethyl]glycinamide dihydrochloride] |  |  | ≥ 40

— US20120196824A1, “THERAPEUTIC AGENT FOR CEREBRAL INFARCTION” (MITSUBISHI TANABE PHARMA CORPORATION, priority 2009, published 2012)
